Reference: paper PMC12397098, “3-Monothiopomalidomide, a new immunomodulatory imide drug (IMiD), blunts inflammation and mitigates ischemic stroke in the rat” (GeroScience, 2025)
Where two headings read alike, the source gives them in different places.

Assays:
[1] = test system: IL-1β, TNF-α and IL-10 levels in animals with MCAo; design: method as in PMID 35631536; conditions: cited from earlier work
[2] = Pharmacokinetic evaluations of 3,6’-DP in rats; assay type: in vivo, rat; conditions: authors' recent pharmacokinetic evaluations, no data shown
[3] = design: method as in PMID 32589144; conditions: cited from earlier work
[4] = human, microsomes, 1 μM
in vitro = conditions: Sprague Dawley, rat, microsomes
[5] = Sprague Dawley, rat, microsomes, 1 h, 1 μM
[6] = Liver microsomal stability, rat
[7] = Liver microsomal stability, human; conditions: 1 μM
[8] = test system: LPS-induced cytokines (TNF-α, IL-6, IL-10, IL-13) in plasma and cerebral cortex; test: Systemic and brain LPS anti-inflammatory study in rats; assay type: in vivo; conditions: rat, LPS 1 mg/kg, 4 h
Method: They were administered, via the intraperitoneal (I.P.) route, nano-formulated 3-MP at a dose of 13.25 or 26.5 mg/kg (equimolar to a clinically translatable dose of 12.5 and 25 mg/kg thalidomide), vehicle or pomalidomide (25 mg/kg). One hour later, animals were administered either LPS (1 mg/kg, E.Coli 055:B5, Sigma Aldrich, in normal saline, 0.5 mg/mL) or an alike volume of saline (without LPS) via the I.P. route. The LPS dose was selected from prior pilot studies to provide a substantial but sub-maximal rise in plasma proinflammatory cytokine levels, in line with our prior research. The selected 3-MP and pomalidomide doses were chosen as they are equimolar to, or are less than, doses of thalidomide and analogues that have been verified to be well tolerated in our previous studies and are of translational relevance to humans. Four hours after LPS administration, the animals were euthanized, and blood and brain tissues were collected and placed on wet ice. Plasma was quickly separated from blood by centrifugation (10,000 × g, 5 min, 4 °C) and together with the brain samples (cerebral cortex) was stored at − 80 °C. At a later time, cerebral cortex samples were sonicated in a TRIS-based lysis buffer (Mesoscale Discovery) with 3 × protease/phosphatase inhibitors (Halt™ Protease and Phosphatase Inhibitor Cocktail, Thermo Fisher Scientific, Waltham, MA, USA). Samples were then centrifuged (10,000 × g, 5 min, 4 °C), supernatant separated, and protein concentrations were quantified by bicinchoninic acid assay (BCA, Thermo Fisher Scientific). Rat plasma and cerebral cortex samples were analyzed by multi-proinflammatory cytokine ELISA (V-PLEX Proinflammatory Panel 2 Rat Kit, Mesoscale Discovery) following the manufacturer’s protocol to quantify TNF-α, IL-6, IL-10, and IL-13 levels.

[9] = design: method as in earlier work; conditions: rat; cited from earlier work
[10] = test system: LPS-induced cytokines (TNF-α, IL-6, IL-10, IL-13) in plasma and cerebral cortex; test: Systemic and brain LPS anti-inflammatory study in rats; assay type: in vivo; conditions: rat, 1 h pre-treatment, 3-MP 13.23 and 26.47 mg/kg I.P., pomalidomide 25 mg/kg I.P., LPS 1 mg/kg I.P., 4 h
[11] = design: method as in earlier work; conditions: nonhuman primate (cynomolgus monkey); cited from earlier work
[12] = cited from earlier work
[13] = Sprague Dawley, rat, microsomes

SMILES: Nc1cccc2c1C(=S)N(C1CCC(=S)NC1=O)C2=O (stereo not shown) [3,6’-DP, 3,6’-dithiopomalidomide]
- IL-1β levels [1]: significantly reduce
- IL-10 levels [1]: increased substantially
- TNF-α levels [1]: significantly reduce
- disappearance from plasma [2]: disappears relatively rapidly
- oral bioavailability [2]: low
- brain/plasma concentration ratio [3]: 0.8

SMILES: O=C(O)Cc1ccccc1Nc1c(Cl)cccc1Cl [Diclofenac, diclofenac, reference compound]
- Clint(liver) [4]: 292.3 mL/min/kg
- Clint(mic) [4]: 324.8 µL/min/mg
- Remaining (NCF = 60 min) ([4]; 1 h): 101.0%
- Remaining (T = 60 min) ([4]; 1 h): 0.0%
- CLint scaled at 1 μM (in vitro): 227 mL/min/kg
- microsomal CLint at 1 μM (in vitro): 126 µL/min/mg
- Remaining (NCF = 60 min) [5]: 107.9%
- Remaining (T = 60 min) [5]: 2.2%

SMILES: C[C@]12CC[C@H]3[C@@H](CCC4=CC(=O)CC[C@@]43C)[C@@H]1CC[C@@H]2O [Testosterone, testosterone]
- CLint scaled at 1 μM [6, 13]: 3910 mL/min/kg
- microsomal CLint at 1 μM [6, 13]: 2170 µL/min/mg
- Remaining (T = 60 min) ([6]; rat liver microsomes with NADPH, 1 μM, 60 min): 0.1%
- Remaining (NCF = 60 min) ([6]; rat liver microsomes, no co-factor (no NADPH), 1 μM, 60 min): 103.7%
- Remaining (T = 60 min) ([7]; human liver microsomes with NADPH, 60 min): 13.2%
- Clint(liver) ([7]; human liver microsomes with NADPH, scaled from Clint(mic)): 59.0 mL/min/kg
- Remaining (NCF = 60 min) ([7]; human liver microsomes, no co-factor (no NADPH), 60 min): 97.1%

SMILES: Nc1cccc2c1C(=O)N(C1CCC(=O)NC1=O)C2=O (stereo not shown) [pomalidomide]
- LPS-mediated elevations in brain IL-13 ([8]; 3-MP both doses and pomalidomide I.P.): maintained
- decline in IL-6 brain levels ([8]; 3-MP low dose 13.25 mg/kg I.P., pomalidomide 25 mg/kg I.P.): failed to achieve statistical significance
- IL-10 elevation induced by LPS in plasma or brain ([8]; high- or low-dose 3-MP or pomalidomide I.P.): not lessened
- bioavailability [9]: 13%
- LPS-induced cytokine changes in plasma and cerebral cortex [10]: significantly mitigated
- bioavailability [11]: 15%
- brain/plasma concentration ratio [12]: 0.71
